Measured values reported in article PMC10975178, “Evaluation on the Potential for Hepatotoxic Components from Herba Epimedii to Induce Apoptosis in HepG2 Cells and the Analysis of the Influence of Metabolism in Liver Microsomes” (Molecules, 2024).
Where two headings read alike, the source gives them in different places.

Experiments:
[1] = tested on: HepG2 cells; assay: HepG2 cell apoptosis by flow cytometry (Annexin V-FITC/PI); assay type: cell-based; conditions: 24 h
Description: HepG2 cells were cultured in Roswell Park Memorial Institute (RPMI) 1640 medium (GIBCO, Grand Island, NY, USA) supplemented with 10% heat-inactivated fetal bovine serum (PAN Biotech GmbH, Aidenbach, Germany), 100 U/mL penicillin, and 100 μg/mL streptomycin. The cells were maintained in a humidified atmosphere with 5% CO2 at 37 °C. Upon reaching 90% confluence, the cells were prepared as single-cell suspensions at a density of 1 × 10^4 cells/mL by treatment with 0.25% trypsin with 0.02% EDTA and then dispensed into 12-well plates (Corning, NY, USA) with a total volume of 1.5 mL per well. After culturing for 24 h, the medium was discarded, and the cells were incubated with fresh medium or medium containing different hepatotoxic compounds at various concentrations for an additional 24 h. […] After treatment, the cells were collected for apoptosis analysis. To investigate the effects of the hepatotoxic compounds on HepG2 cell apoptosis, flow cytometry was performed with a FACSCalibur flow cytometer (BD Biosciences) using an Annexin V-FITC apoptosis detection kit. The cells were prepared according to the manufacturer’s instructions. Briefly, the collected cell pellets were washed three times by centrifugation at 2000 rpm and 4 °C for 5 min with PBS and resuspended in binding buffer. Then, the cells were incubated with Annexin V-FITC for 15 min, propidium iodide (PI) was added, and the cells were incubated for another 5 min. The whole labeling process was performed in the dark. After fluorescent labeling, the cell suspension was immediately analyzed by flow cytometry. Cells in the early phases of apoptosis can bind Annexin V-FITC but exclude PI, while cells in late apoptosis or those that are necrotic can be stained with Annexin V-FITC and PI simultaneously.

[2] = assay type: in vitro ADME, humans; conditions: human, microsomes, 5 μM; for amount remaining: 1 h; for final amount remaining: 60 min
Description: The incubation mixtures were prepared following the instructions from the manufacturer of the metabolic stability kits and contained sagittatoside A, icariside I, baohuoside I, and icaritin, of which the final concentrations were 49, 50, 32 and 3.8 μg/mL. The final concentration of organic solvents in the incubation mixture was 1% (v/v). After preincubation for 5 min at 37 °C, metabolic reactions of phase I and II were both initiated by the addition of human liver microsomes (final concentration, 0.20 mg protein/mL). Phase I metabolism is mediated by the enzyme cytochrome P450 (CYP), and phase II metabolism is mediated by UDP-glucuronosyltransferase (UGT). The whole reaction process was performed under aerobic conditions. After 30 min, an equal volume of cold acetonitrile was added and vortexed for 1 min to terminate the reactions. Subsequently, 200 μL of the resulting solution was centrifuged at 3000 rpm and 4 °C for 10 min. Then, 100 μL of supernatant was dried at 40 °C with nitrogen gas, and the residue was redissolved in 100 μL with fresh medium to prepare for treating cells. Negative controls (incubation without substrate) were prepared in the same manner.
The incubation mixtures were also prepared following Section 2.4 and contained sagittatoside A, icariside I, baohuoside I, and icaritin, of which the final concentrations were 5.00 μM. After the mixtures were incubated separately in phase I or phase II metabolism systems for 5, 10, 15, 20, 30, 45 and 60 min, the reactions were terminated by adding an equal volume of cold acetonitrile (with 7 μM IS) and vortex mixing for 1 min. Subsequently, 200 μL of the resulting solution was centrifuged at 3000 rpm and 4 °C for 10 min. Then, 100 μL of supernatant was dried at 40 °C with nitrogen gas, and the residue was redissolved in 100 μL of 50% methanol to prepare the samples for HPLC–MS/MS detection. Time zero samples (prepared by first adding cold acetonitrile and then adding NADPH for phase I metabolism or NADPH and UDPGA for phase II metabolism) and negative controls (incubation without substrate) were prepared separately in the same manner.
HPLC analysis was performed on an AB Sciex ExionLC HPLC system (Santa Clara, CA, USA) equipped with an autosampler, a vacuum degasser unit, a quaternary pump, a diode array detector (DAD) and a column compartment. Samples were separated on an ACQUITY ΜPLC BEH C18 column (2.1 × 100 mm, 1.7 μm) connected to an ACQUITY ΜPLC BEH C18 precolumn (2.1 × 5 mm, 1.7 μm) at 40 °C. The mobile phases were water with 0.05% formic acid (A) and methanol-acetonitrile (v/v 1:1) with 0.05% formic acid (B), and the elution gradient was as follows: 70% A (0.00–1.00 min), 2% A (2.50–3.50 min), and 70% A (3.51–7.00 min). The flow rate was set at 0.23 mL/min, and the injection volume was 5 μL.
Electrospray ionization–mass spectrometry (ESI–MS) analyses were performed on an AB Sciex QTRAP 5500 (EG250911902) mass spectrometer (Santa Clara, CA, USA). Detection was performed with multiple reaction monitoring (MRM) in ESI negative ion mode. The spray voltage was set to −4500 V, the curtain gas was 25 psi, the collision gas was set to medium, both auxiliary gases 1 and 2 were used at 45 psi, and the heating temperature was 550 °C.
In accordance with the above HPLC–MS/MS analysis method, the content of each compound in the sample at each time point was measured. Then, using the substrate depletion method, the content of each compound in the time zero sample was set as 100%, and the percent residual substrate was calculated. The relationship between the natural logarithmic value of the percent residual substrate and time point was explored by linear regression using GraphPad Prism 5.0 software, and the slope (−k) was obtained. […]

[3] = in vitro; assay type: in vitro ADME, mice; conditions: mouse, microsomes; for final amount remaining: 60 min, 5 μM
[4] = assay type: in vitro ADME, SD rats; conditions: SD, rat, microsomes, 60 min, 5 μM
[5] = in vitro; assay type: in vitro ADME, beagle dogs; conditions: beagle, dog, microsomes; for final amount remaining: 60 min, 5 μM

Compound	apoptosis rate ([1]; 32 μg/mL, mean ± SD n = 3, p < 0.05 vs control)	amount remaining [2]	final amount remaining [2]	final amount remaining [3]	final amount remaining [4]	CLint scaled at 5 μM [5]	final amount remaining [5]	apoptosis rate ([1]; 50 μg/mL, mean ± SD n = 3, no change vs control)	CLint scaled at 5 μM [3]	apoptosis rate ([1]; 3.8 μg/mL, mean ± SD n = 3, p < 0.01 vs control)
COc1ccc(-c2oc3c(CC=C(C)C)c(O)cc(O)c3c(=O)c2O[C@@H]2O[C@@H](C)[C@H](O)[C@@H](O)[C@H]2O)cc1 [baohuoside I]	3.93 ± 0.20%	20.74 ± 0.39%	5.56 ± 0.60%	11.64 ± 1.63%	1.55 ± 0.33%	28.4 mL/min/kg	5.69 ± 0.33%	–	–	–
COc1ccc(-c2oc3c(CC=C(C)C)c(O[C@@H]4O[C@H](CO)[C@@H](O)[C@H](O)[C@H]4O)cc(O)c3c(=O)c2O)cc1 [icariside I]	–	10.08 ± 0.43%	45.62 ± 1.52%	12.18 ± 0.64%	22.71 ± 10.94%	24.7 mL/min/kg	30.79 ± 3.26%	2.39 ± 0.34%	79.3 mL/min/kg	–
COc1ccc(-c2oc3c(CC=C(C)C)c(O)cc(O)c3c(=O)c2O)cc1 [icaritin]	–	36.23 ± 1.12%	20.51 ± 0.97%	7.73 ± 0.17%	19.44 ± 0.36%	–	4.42 ± 0.67%	–	–	25.93 ± 0.66%
